For experiment [1], the target named is T1, human p70S6 kinase (p70S6K, kinase domain residues 1-421, T412E mutation) (Homo sapiens, UniProt P23443, T412E).
T1 construct: human p70S6 kinase domainresidues 1-421, containing a T412E mutation; made in house
In words: p70S6 kinase assay, Luciferase-Coupled Chemiluminescent Kinase assay (LCCA). It is filed as biochemical. The following applies: 5 μM ATP, 12 nM p70S6K; read-out: p70S6K inhibition IC50. As to the method: (§1) Kinase activity and compound inhibition are investigated using one or more of the three assay formats described below. The ATP concentrations for each assay are selected to be close to the Michaelis-Menten constant (KM) for each individual kinase. Dose-response experiments are performed at 10 different inhibitor concentrations in a 384-well plate format. The data are fitted to four-parameter equation (2) below; where Y is the observed signal, X is the inhibitor concentration, Min is the background signal in the absence of enzyme (0% enzyme activity), Max is the signal in the absence of inhibitor (100% enzyme activity), IC50 is the inhibitor concentration at 50% enzyme inhibition and H represents the empirical Hill's slope to measure the cooperativity. Typically H is close to unity. Y=Min+(Max−Min)/(1+(X/IC50)^H) Equation (2) p70S6 Kinase Assay
Biochemical activity of p70S6 kinase was assessed using a Luciferase-Coupled Chemiluminescent Kinase assay (LCCA) format. Kinase activity was measured as the percent ATP remaining following the kinase reaction. Remaining ATP was detected by luciferase-luciferin-coupled chemiluminescence. Specifically, the reaction was initiated by mixing test compounds, 5 μM ATP, 5 μM RRRLSSLRA peptide and 12 nM p70S6K (baculovirus expressed human p70S6 kinase domainresidues 1-421, containing a T412E mutation) in a 20 uL assay buffer (20 mM Tris-HCL pH 7.5, 10 mM MgCl2, 0.02% Triton X-100, 100 mM DTT, 2 mM MnCl2). The mixture is incubated at ambient temperature for 2 hours after which 20 μL luciferase-luciferin mix is added and the chemiluminescent signal read using a Wallac Victor^2 reader. The luciferase-luciferin mix consists of 50 mM HEPES, pH 7.8, 8.5 μg/mL oxalic acid (pH 7.8), 5 (or 50) mM DTT, 0.4% Triton X-100, 0.25 mg/mL coenzyme A, 63 uM AMP, 28 μg/mL luciferin and 40,000 units/mL luciferase.

Experiment [2] has as its target T2, human Akt1 kinase (kinase domain residues R144-A480, activated with PDK1) (Homo sapiens, UniProt P31749).
T2 construct: made in house
In words: Akt1 kinase assay, Luciferase-Coupled Chemiluminescent Kinase assay (LCCA). It is filed as biochemical. The following applies: 1 μM ATP, 1.3 nM Akt1; read-out: Akt-1 inhibition IC50. As to the method: as §1
Biochemical activity of Akt1 kinase was assessed using a Luciferase-Coupled Chemiluminescent Kinase assay (LCCA) format. Kinase activity was measured as the percent ATP remaining following the kinase reaction. Remaining ATP was detected by luciferase-luciferin-coupled chemiluminescence. Specifically, the reaction was initiated by mixing test compounds, 1 μM ATP, 5 μM crosstide peptide and 1.3 nM Akt1 (baculovirus expressed human Akt1 kinase domain residues R144-A480, activated with PDK1) in a 20 uL assay buffer (20 mM Tris-HCL pH 7.5, 10 mM MgCl2, 0.01% Triton X-100, 1 mM DTT, 3 mM MnCl2). The mixture is incubated at ambient temperature for 3 hours after which 20 μL luciferase-luciferin mix is added and the chemiluminescent signal read using a Wallac Victor2 reader. The luciferase-luciferin mix consists of 50 mM HEPES, pH 7.8, 8.5 μg/mL oxalic acid (pH 7.8), 5 (or 50) mM DTT, 0.4% Triton X-100, 0.25 mg/mL coenzyme A, 63 uM AMP, 28 μg/mL luciferin and 40,000 units/mL luciferase.

Molecules are shown by their SMILES. A value given as a limit tells only on which side of the number the result lay.

T1 sequence (P23443 1-421 T412E): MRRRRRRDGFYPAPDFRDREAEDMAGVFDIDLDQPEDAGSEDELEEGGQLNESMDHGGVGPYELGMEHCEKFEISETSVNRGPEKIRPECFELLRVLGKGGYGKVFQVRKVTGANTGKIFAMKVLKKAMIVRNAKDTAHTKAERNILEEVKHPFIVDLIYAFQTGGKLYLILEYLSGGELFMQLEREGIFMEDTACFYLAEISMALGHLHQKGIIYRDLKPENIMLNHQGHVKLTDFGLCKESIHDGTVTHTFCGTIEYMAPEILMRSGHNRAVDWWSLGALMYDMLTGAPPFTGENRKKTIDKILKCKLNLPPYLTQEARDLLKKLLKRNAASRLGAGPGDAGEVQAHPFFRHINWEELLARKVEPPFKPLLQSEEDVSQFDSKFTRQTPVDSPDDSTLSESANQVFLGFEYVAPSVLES
T2 sequence (P31749 144-480): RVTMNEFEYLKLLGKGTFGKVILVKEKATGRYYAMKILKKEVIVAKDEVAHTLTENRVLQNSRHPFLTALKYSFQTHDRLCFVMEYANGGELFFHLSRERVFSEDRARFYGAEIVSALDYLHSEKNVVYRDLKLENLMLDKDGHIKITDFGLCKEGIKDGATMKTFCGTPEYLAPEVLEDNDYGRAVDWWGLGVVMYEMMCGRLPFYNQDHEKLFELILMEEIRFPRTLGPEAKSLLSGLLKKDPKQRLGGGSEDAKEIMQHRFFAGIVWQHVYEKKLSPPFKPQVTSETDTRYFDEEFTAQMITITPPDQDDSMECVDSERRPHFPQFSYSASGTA

Take `OC(c1ccc(Cl)cc1)C1CCN(c2ncnc3[nH]nc(Br)c23)CC1` (stereo not shown) [Entry 1, [1-(3-bromo-1H-pyrazolo[3,4-d]pyrimidin-4-yl)piperidin-4-yl](4-chlorophenyl)methanol]: the IC50 in experiment [1] and in experiment [2] was under 50 nM each time.

In the case of `CN(C)CCCOC(c1ccc(Cl)cc1)C1CCN(c2ncnc3[nH]nc(Br)c23)CC1` (stereo not shown) [Entry 3, 3-{[[1-(3-bromo-1H-pyrazolo[3,4-d]pyrimidin-4-yl)piperidin-4-yl](4-chlorophenyl)methyl]oxy}-N,N-dimethylpropan-1-amine], the half-maximal inhibitory concentration (IC50) in experiment [1] and in experiment [2] was under 50 nM throughout.

Turning to `Brc1ccc(CN2CCN(c3ncnc4[nH]nc(Br)c34)CC2)cc1` [Entry 4, 3-bromo-4-{4-[(4-bromophenyl)methyl]piperazin-1-yl}-1H-pyrazolo[3,4-d]pyrimidine], the half-inhibitory concentration (IC50) is under 50 nM in experiment [1] and 50 to 500 nM in experiment [2].

On to `OCC1CN(c2ncnc3[nH]nc(Br)c23)CCN1Cc1ccc(Cl)cc1` (stereo not shown) [Entry 5, {4-(3-bromo-1H-pyrazolo[3,4-d]pyrimidin-4-yl)-1-[(4-chlorophenyl)methyl]piperazin-2-yl}methanol], for which the IC50 in experiment [1] was under 50 nM; in experiment [2], 50 to 500 nM.

With `CCN(CC)CCNC(c1ccc(Cl)cc1)C1CCN(c2ncnc3[nH]nc(Br)c23)CC1` (stereo not shown) [Entry 6, N′-[[1-(3-bromo-1H-pyrazolo[3,4-d]pyrimidin-4-yl)piperidin-4-yl](4-chlorophenyl)methyl]-N,N-diethylethane-1,2-diamine], the half-maximal inhibitory concentration (IC50) in experiment [1] and in experiment [2] was under 50 nM each time.

With `O=C1CN(c2ncnc3[nH]nc(Br)c23)CCN1Cc1ccc(Cl)cc1` [Entry 8, 4-(3-bromo-1H-pyrazolo[3,4-d]pyrimidin-4-yl)-1-[(4-chlorophenyl)methyl]piperazin-2-one], the concentration for half-maximal inhibition (IC50) was under 50 nM in experiment [1] and 50 to 500 nM in experiment [2].

For the molecule `CN(C)CCNC(=O)C(c1ccc(Cl)cc1)N1CCN(c2ncnc3[nH]nc(Br)c23)CC1` (stereo not shown) [Entry 9, 2-[4-(3-bromo-1H-pyrazolo[3,4-d]pyrimidin-4-yl)piperazin-1-yl]-2-(4-chlorophenyl)-N-[2-(dimethylamino)ethyl]acetamide], the concentration for half-maximal inhibition (IC50) in experiment [1] and in experiment [2] was under 50 nM throughout.

On to `CCN(CC)CCCN(c1ccc(Cl)cc1)C1CCN(c2ncnc3[nH]nc(Br)c23)CC1` [Entry 10, N-[1-(3-bromo-1H-pyrazolo[3,4-d]pyrimidin-4-yl)piperidin-4-yl]-N-(4-chlorophenyl)-N′,N′-diethylpropane-1,3-diamine], for which the IC50 in experiment [1] and in experiment [2] was under 50 nM in each case.

Regarding `CN(C)CCNC(=O)N(c1ccc(Cl)cc1)C1CCN(c2ncnc3[nH]nc(Br)c23)CC1` [Entry 12, N-[1-(3-bromo-1H-pyrazolo[3,4-d]pyrimidin-4-yl)piperidin-4-yl]-N-(4-chlorophenyl)-N′-[2-(dimethylamino)ethyl]urea], the IC50 in experiment [1] and in experiment [2] was under 50 nM each time.

As to `CN(C)CCNC(=O)NC(c1ccc(Cl)cc1)C1CCN(c2ncnc3[nH]nc(Br)c23)CC1` (stereo not shown) [Entry 13, N-[[1-(3-bromo-1H-pyrazolo[3,4-d]pyrimidin-4-yl)piperidin-4-yl](4-chlorophenyl)methyl]-N′-[2-(dimethylamino)ethyl]urea], the half-maximal inhibitory concentration (IC50) in experiment [1] and in experiment [2] was under 50 nM each time.

On to `CN(C)CCNC(=O)C(c1ccc(Cl)cc1)N1CCN(c2ncnc3[nH]nc(Br)c23)CC1=O` (stereo not shown) [Entry 14, 2-[4-(3-bromo-1H-pyrazolo[3,4-d]pyrimidin-4-yl)-2-oxopiperazin-1-yl]-2-(4-chlorophenyl)-N-[2-(dimethylamino)ethyl]acetamide], for which the 50% inhibitory concentration (IC50) in experiment [1] and in experiment [2] was under 50 nM in each case.

On to `CN(C)CCOC(=O)N(c1ccc(Cl)cc1)C1CCN(c2ncnc3[nH]nc(Br)c23)CC1` [Entry 15, 2-(dimethylamino)ethyl [1-(3-bromo-1H-pyrazolo[3,4-d]pyrimidin-4-yl)piperidin-4-yl](4-chlorophenyl)carbamate], for which the concentration for half-maximal inhibition (IC50) in experiment [1] and in experiment [2] was under 50 nM throughout.

Regarding `Fc1cc(CN2CCN(c3ncnc4[nH]nc(Br)c34)CC2)ccc1Cl` [Entry 16, 3-bromo-4-{4-[(4-chloro-3-fluorophenyl)methyl]piperazin-1-yl}-1H-pyrazolo[3,4-d]pyrimidine], the IC50 in experiment [1] was under 50 nM; in experiment [2], 50 to 500 nM.

On to `Fc1cc(Cl)ccc1CN1CCN(c2ncnc3[nH]nc(Br)c23)CC1` [Entry 17, 3-bromo-4-{4-[(4-chloro-2-fluorophenyl)methyl]piperazin-1-yl}-1H-pyrazolo[3,4-d]pyrimidine], for which the IC50 was under 50 nM in experiment [1] and 50 to 500 nM in experiment [2].

On to `CCN(CC)CCN(c1ccc(Cl)cc1)C1CCN(c2ncnc3[nH]nc(Br)c23)CC1` [Entry 18, N-[1-(3-bromo-1H-pyrazolo[3,4-d]pyrimidin-4-yl)piperidin-4-yl]-N-(4-chlorophenyl)-N′,N′-diethylethane-1,2-diamine], for which the IC50 in experiment [1] and in experiment [2] was under 50 nM in each case.

For the molecule `O=C(c1ccc(F)cc1)C1CCN(c2ncnc3[nH]nc(Br)c23)CC1` [Entry 20, [1-(3-bromo-1H-pyrazolo[3,4-d]pyrimidin-4-yl)piperidin-4-yl](4-fluorophenyl)methanone], the IC50 in experiment [1] and in experiment [2] was under 50 nM throughout.

`CCN(CC)CCN(C)C(c1ccc(Cl)cc1)C1CCN(c2ncnc3[nH]nc(Br)c23)CC1` (stereo not shown) [Entry 21, N-[[1-(3-bromo-1H-pyrazolo[3,4-d]pyrimidin-4-yl)piperidin-4-yl](4-chlorophenyl)methyl]-N′,N′-diethyl-N-methylethane-1,2-diamine]: the IC50 in experiment [1] and in experiment [2] was under 50 nM each time.

As to `OC(c1ccc(F)cc1)C1CCN(c2ncnc3[nH]nc(Br)c23)CC1` (stereo not shown) [Entry 22, [1-(3-bromo-1H-pyrazolo[3,4-d]pyrimidin-4-yl)piperidin-4-yl](4-fluorophenyl)methanol], the IC50 is under 50 nM in experiment [1] and 50 to 500 nM in experiment [2].

For the molecule `Fc1cc(C(F)(F)F)ccc1CN1CCN(c2ncnc3[nH]nc(Br)c23)CC1` [Entry 23, 3-bromo-4-(4-{[2-fluoro-4-(trifluoromethyl)phenyl]methyl}piperazin-1-yl)-1H-pyrazolo[3,4-d]pyrimidine], the IC50 in experiment [1] is under 50 nM; in experiment [2], 50 to 500 nM.

For `CCN(CC)CCC(=O)N(c1ccc(Cl)cc1)C1CCN(c2ncnc3[nH]nc(Br)c23)CC1` [Entry 24, N-[1-(3-bromo-1H-pyrazolo[3,4-d]pyrimidin-4-yl)piperidin-4-yl]-N-(4-chlorophenyl)-N~3~,N~3~-diethyl-beta-alaninamide], the IC50 in experiment [1] and in experiment [2] was under 50 nM each time.

For `CN(C)CCOC(c1ccc(F)cc1)C1CCN(c2ncnc3[nH]nc(Br)c23)CC1` (stereo not shown) [Entry 25, 2-{[[1-(3-bromo-1H-pyrazolo[3,4-d]pyrimidin-4-yl)piperidin-4-yl](4-fluorophenyl)methyl]oxy}-N,N-dimethylethanamine], the IC50 in experiment [1] and in experiment [2] was under 50 nM throughout.

With `CCN(CC)CCC(=O)NC(c1ccc(Cl)cc1)C1CCN(c2ncnc3[nH]nc(Br)c23)CC1` (stereo not drawn) [Entry 26, N-[[1-(3-bromo-1H-pyrazolo[3,4-d]pyrimidin-4-yl)piperidin-4-yl](4-chlorophenyl)methyl]-N~3~,N~3~-diethyl-beta-alaninamide], the IC50 in experiment [1] and in experiment [2] was under 50 nM each time.

Consider `CN(C)CCNC(=O)C(=O)N(c1ccc(Cl)cc1)C1CCN(c2ncnc3[nH]nc(Br)c23)CC1` [Entry 28, N-[1-(3-bromo-1H-pyrazolo[3,4-d]pyrimidin-4-yl)piperidin-4-yl]-N-(4-chlorophenyl)-N′-[2-(dimethylamino)ethyl]ethanediamide], for which the IC50 in experiment [1] and in experiment [2] was under 50 nM throughout.

Source of the values: patent publication US7994172B2, “[1H-pyrazolo[3, 4-D]pyrimidin-4-yl]-piperidine or -piperazine compounds as serine-theoronine kinase modulators (P70s6k, Atk1 and Atk2) for the treatment of immunological, inflammatory and proliferative diseases” (Exelixis, Inc., priority 2004, dated 2011).
